Ends that are not written are not given here.
System: Lactococcus lactis HP
Experiment: Agarose-based assay of cell-free supernatants of S29X producing strains
Details: for Zone Diameter (mm): agarose (1%) GM17 assay, 10 µl cell-free supernatant of overnight producing culture in 4.6 mm wells, L. lactis HP, 30°C; for % difference (zone relative to wild type): agarose assay of supernatants against L. lactis HP, wild type serine = 100
Description: Agarose-based deferred antagonism assays were carried out as follows: GM17/LB (0.03%) underlay was prepared with 10 mM sodium phosphate buffer (SPB) at pH 7.4 to which was added agarose (1% w/v agarose), autoclaved and cooled to 50°C. Bacteria grown to mid-logarithmic phase were harvested by centrifugation and washed with 10 mM SPB at pH 7.4. Bacteria were then added to 15 mls cooled underlay medium to reach a concentration of 2×10^7 colony-forming units (CFU)/mL. The inoculated medium was rapidly transferred into sterile Petri plates, allowed to solidify and dried. Wells (4.6 mm in diameter) were then made in the seeded plates. 10 µl volumes of cell-free supernatant from overnight nisin derivative producing cultures or resuspended purified peptides were then added to the wells and the plates incubated at 30°C (L. lactis) or 37°C (Gram positive strains) or RT (Gram negative strains) for 3 hours. Polymyxin B (Sigma Aldrich) was used at a concentration of 20 µg/ml. The plates were then overlaid with 15 mls of autoclaved double strength GM17 (L. lactis) or LB (Gram negatives) agarose (1% w/v agarose) overlay medium precooled to 50°C. The plates were then incubated overnight at the relevant temperature.

Substance	Zone Diameter (mm)	% difference (zone relative to wild type) [%]
S29T: nisin A S29 saturation derivative, threonine at position 29 (ITSISLCTPGCKTGALMGCNMKTATCHCTIHVSK; not fully specified (bridges); also: lantibiotic nisin A (lanthionine rings, dehydrated residues not placed); UniProt P13068 24-57, looked up, variant S29T)	12.1±0.9	79
S29N: nisin A S29 saturation derivative, asparagine at position 29 (ITSISLCTPGCKTGALMGCNMKTATCHCNIHVSK; not fully specified; cysteine pairing not given here; UniProt P13068 24-57, looked up, variant S29N)	12.6±1.0	83
S29C: nisin A S29 saturation derivative, cysteine at position 29 (ITSISLCTPGCKTGALMGCNMKTATCHCCIHVSK; not fully specified; cysteine pairing not given here; UniProt P13068 24-57, looked up, variant S29C)	10.5±1.0	69
S29L: nisin A S29 saturation derivative, leucine at position 29 (ITSISLCTPGCKTGALMGCNMKTATCHCLIHVSK; not fully specified; cysteine pairing not given here; UniProt P13068 24-57, looked up, variant S29L)	12.7±0.7	84
S29V: nisin A S29 saturation derivative, valine at position 29 (ITSISLCTPGCKTGALMGCNMKTATCHCVIHVSK; not fully specified (bridges); also: lantibiotic nisin A (lanthionine rings, dehydrated residues not placed); UniProt P13068 24-57, looked up, variant S29V)	11.6±0.4	76
S29H: nisin A S29 saturation derivative, histidine at position 29 (ITSISLCTPGCKTGALMGCNMKTATCHCHIHVSK; not fully specified (bridges); also: lantibiotic nisin A (lanthionine rings, dehydrated residues not placed); UniProt P13068 24-57, looked up, variant S29H)	10.9±0.3	72
S29Y: nisin A S29 saturation derivative, tyrosine at position 29 (ITSISLCTPGCKTGALMGCNMKTATCHCYIHVSK; not fully specified (bridges); also: lantibiotic nisin A (lanthionine rings, dehydrated residues not placed); UniProt P13068 24-57, looked up, variant S29Y)	10.6±0.6	70
S29I: nisin A S29 saturation derivative, isoleucine at position 29 (ITSISLCTPGCKTGALMGCNMKTATCHCIIHVSK; not fully specified; cysteine pairing not given here; UniProt P13068 24-57, looked up, variant S29I)	9.9±1.0	65
S29W: nisin A S29 saturation derivative, tryptophan at position 29 (ITSISLCTPGCKTGALMGCNMKTATCHCWIHVSK; not fully specified; cysteine pairing not given here; UniProt P13068 24-57, looked up, variant S29W)	12.1±1.2	79
S29P: nisin A S29 saturation derivative, proline at position 29 (ITSISLCTPGCKTGALMGCNMKTATCHCPIHVSK; not fully specified (bridges); also: lantibiotic nisin A (lanthionine rings, dehydrated residues not placed); UniProt P13068 24-57, looked up, variant S29P)	13.7±1.0	89
S29Q: nisin A S29 derivative, glutamine at position 29, made by site-directed mutagenesis (ITSISLCTPGCKTGALMGCNMKTATCHCQIHVSK; not fully specified; cysteine pairing not given here; UniProt P13068 24-57, looked up, variant S29Q)	15.3±0.1	100
S29R: nisin A S29 saturation derivative, arginine at position 29 (ITSISLCTPGCKTGALMGCNMKTATCHCRIHVSK; not fully specified (bridges); also: lantibiotic nisin A (lanthionine rings, dehydrated residues not placed); UniProt P13068 24-57, looked up, variant S29R)	11.0±0.6	72
S29K: nisin A S29 saturation derivative, lysine at position 29 (ITSISLCTPGCKTGALMGCNMKTATCHCKIHVSK; not fully specified (bridges); also: lantibiotic nisin A (lanthionine rings, dehydrated residues not placed); UniProt P13068 24-57, looked up, variant S29K)	9.9±1.0	64
S29F: nisin A S29 saturation derivative, phenylalanine at position 29 (ITSISLCTPGCKTGALMGCNMKTATCHCFIHVSK; not fully specified (bridges); also: lantibiotic nisin A (lanthionine rings, dehydrated residues not placed); UniProt P13068 24-57, looked up, variant S29F)	11.0±1.0	72
